Measurements published in paper PMC5387716, “Discovery of monocarbonyl curcumin-BTP hybrids as STAT3 inhibitors for drug-sensitive and drug-resistant breast cancer therapy” (Scientific Reports, 2017).

Columns and labels:
MCF-7 cells [1] = assay: Colony survival assay, MCF-7; format: cell-based, human; details: 24 h treatment, 14 d culture
Description: MCF-7 or MCF-7/DOX cells were cultured a 6-well plate at a density of 800–1,000 cells/well with regular growth medium. Cells were treated for 24 h with the vehicle and 6b at 0.15–1 μM on the following day. Cells were allowed to grow for 10–14 d until colonies were visible. Crystal violet solution (Sigma, St. Louis, MO, USA) was used to stain the colonies for 4 hours and colonies were imaged.

P-gp = assay: Western blot of P-gp; format: cell-based, human; details: MCF-7/DOX cells, 24 h
Description: (§1) MCF-7 or MCF-7/DOX cells were incubated with various concentrations of 6b for 24 h. After trypsinization, cells were treated with 1× RIPA lysis buffer (50 mM Tris–HCl, pH 7.4, 150 mM NaCl, 0.25% deoxycholic acid, 1% NP-40, 1 mM EDTA and protease inhibitors) (Amresco, Solon, USA) to extract the total proteins. An aliquot of proteins from the total cell lysates (30 to 60 μg/lane) was separated by sodium dodecyl sulfate (10%) polyacrylamide gel electrophoresis (SDS–PAGE, Bio-Rad Laboratories, Hercules, CA), wet-transferred to NC membrane (Bio-Rad Laboratories, Hercules, CA) and blotted with primary antibodies specific for STAT3, p-STAT3, p-Jak2, Jak2, p-Src, Src, Erk, P-Erk, PARP, cleaved PARP, Bcl-2, Bax, Cyclin D1, P-gp and GAPDH. Bound immuno-complexes were detected using ChemiDOC™ XRS + system (Bio-Rad Laboratories, Hercules, CA).

MCF-7 cells [2] = assay: ROS detection by DCFH-DA flow cytometry, MCF-7; format: cell-based, human; details: MCF-7, different concentrations (1, 2, 4 μM), 24 h
Description: (§2) MCF-7 or MCF-7/DOX cells were seeded at a density of 3 × 10^5 cells per well of a 6-well plate and treated with various concentrations of 6b (0, 1, 2, 4 μM) or 4 μM curcumin for 24 h. DCFH-DA was dissolved in serum-free medium and diluted to a final concentration of 10 μM. After treatment with 6b, the growth media was replaced with serum-free medium containing the probe. After incubation for 20 min at 37 °C, cells were washed with serum-free medium twice, digested by trypsin and resuspended in pre-warmed PBS buffer. The samples were then subjected to a flow cytometry assay using a BD FACSCalibur flow cytometer (Becton & Dickinson Company, Franklin Lakes, NJ).

Cyclin D1 gene = assay: Quantitative real-time RT-PCR of Cyclin D1; format: cell-based, human; details: 24 h
Description: (§3) Levels of mRNA expression were analyzed with the RT-PCR assay, with total RNA isolated from MCF-7 or MCF-7/DOX cells using an EASYspin Plus tissue/cell RNA extraction kit (Aidlab Biotechnologies Co. Ltd). RNA was quantified by measuring absorption at 260 nm and 1 μg of RNA was reverse transcribed to cDNA using the Transcriptor First Strand cDNA Synthesis Kit (Roche Diagnostics, Basel, Switzerland). Thermal cycling conditions included 95 °C initial denaturation for 5 min, followed by 40 cycles of denaturation (10 s at 95 °C), annealing (15 s at 60 °C) and extension (15 s at 72 °C with a single fluorescence measurement), a melt curve program (60–95 °C with a 0.11 °C/s heat increase and continuous fluorescence measurement) and a cooling step to 40 °C. The Δ cycle threshold method was used for the calculation of relative differences in mRNA abundance with a LightCycler 480 (Roche Molecular Biochemicals, Mannheim, Germany). The data were normalized to the expression of GAPDH. The results were expressed as fold-changes. The RT-PCR primers that were used in this study are listed in the supporting information.

STAT3 [3] = assay: Immunofluorescence of p-STAT3 nuclear translocation; format: cell-based, human; details: MCF-7 cells, 6 h then IL-6 50 ng/ml 30 min
Description: The basic protocol for the analysis of p-STAT3 subcellular location has been previously described. Briefly, MCF-7 cells were starved overnight, followed by incubation with 6b for 6 h. Cells were then stimulated with 50 ng/ml IL-6 for 30 min before being harvested in Tris-buffered saline (TBS) containing 1 mM sodium orthovanadate. Cells were transferred to polylysine-coated slides by cytospin and air dried for 20 min at room temperature. After being fixed in 2% of paraformaldehyde for 10 min and permeabilized in 0.1% Triton X-100 for 5 min, cells were blocked in TBS containing 5% bovine serum albumin for 1 h at room temperature before being stained with p-STAT3 (Tyr705) overnight at 4 °C. Then, cells were gently washed and incubated with FITC–conjugated, goat, anti-rabbit IgG (Beyotime Biotechnology Ltd). Finally, slides were incubated with 5 μg/ml of 4′,6-diamidino-2-phenylindole (DAPI, Beyotime) for 5 min. The subcellular location and relative abundance of p-STAT3 were immediately analyzed with an ImageXpress Micro Confocal analysis.

STAT3 [4] = assay: IL-6 induced STAT3 phosphorylation (western blot); format: cell-based, human; details: 6 h, IL-6 50 ng/mL 30 min
Description: MCF-7 or MCF-7/DOX cells were seeded in 6-well plates and allowed to adhere overnight. The following day, the cells were serum-starved. The cells were then left untreated or were treated with 6b (0.5–4 μM). After 6 h, the untreated and 6b-treated cells were stimulated with IL-6 (50 ng/ml). The cells were harvested after 30 min and analyzed by western blot.

Bax = assay: Western blot of Bax; format: cell-based, human; details: MCF-7 and MCF-7/DOX cells, 24 h
Description: as §1

MCF-7/DOX cells = assay: ROS detection by DCFH-DA flow cytometry, MCF-7/DOX; format: cell-based, human; details: different concentrations (1, 2, 4 μM), 24 h
Description: as §2

Jak2 = assay: Western blot of p-Jak2; format: cell-based, human; details: MCF-7 and MCF-7/DOX cells, 24 h
Description: as §1

Bcl-2 gene = assay: Quantitative real-time RT-PCR of Bcl-2; format: cell-based, human; details: 24 h
Description: as §3

With COc1ccc(/C=C/C(=O)N2CCN(C(=O)C3=Cc4cc(Br)ccc4S3(=O)=O)CC2)cc1 [Compound 6b, (E)-1-(4-(5-bromo-1,1-dioxidobenzo[b]thiophene-2-carbonyl)piperazin-1-yl)-3-(4-methoxyphenyl)prop-2-en-1-one] the “clonogenic ability / colony formation” value (MCF-7 cells [1]; MCF-7, 0.25 μM) was “significant reduction in clonogenic ability”, the “clonogenic ability / colony formation” value (MCF-7 cells [1]; MCF-7, 0.5 μM) was “almost a cessation of colony formation” and the P-gp expression (P-gp) was “decreased P-gp expression in MCF-7/DOX cells in a dose-dependent manner”. For the same molecule, the “increase of ROS levels” value (MCF-7 cells [2]) was 2–8 fold, the “decrease in the gene expression level of Cyclin D1” value (from here on “decrease … of Cyclin D1”) (Cyclin D1 gene; MCF-7/DOX cells, 1.0 μM) was 18.5% and the “decrease … of Cyclin D1” value (Cyclin D1 gene; MCF-7/DOX cells, 2.0 μM) was 51.0%. The “decrease … of Cyclin D1” value (Cyclin D1 gene; MCF-7/DOX cells, 4.0 μM) was 75.0%, the “Cyclin D1 gene level (in words)” value (Cyclin D1 gene; MCF-7 and MCF-7/DOX cells) was “decreased in a dose-dependent manner” and the “decrease … of Cyclin D1” value (Cyclin D1 gene; MCF-7 cells, 1.0 μM) was 16.0%. For the same molecule, the “decrease … of Cyclin D1” value (Cyclin D1 gene; MCF-7 cells, 2.0 μM) was 28.4%, the “decrease … of Cyclin D1” value (Cyclin D1 gene; MCF-7 cells, 4.0 μM) was 45.5% and the “p-STAT3 level in the nucleus” value (STAT3 [3]) was “sharp decrease”. The melting point was 250 to 251 °C, the “STAT3 phosphorylation induced by IL-6” value (STAT3 [4]; MCF-7, 4 μM) was “almost completely abolished” and the “IL-6-induced phosphorylation levels of STAT3” value (STAT3 [4]; MCF-7, low concentration (0.5–4 μM tested)) was “decreased”. For the same molecule, the “expression of Bax (protein)” value (Bax) was “increased”, the “increase of ROS levels” value (MCF-7/DOX cells) was 2–8 fold and the “phosphorylation of Jak2” value (Jak2) was “inhibited”. The “decrease in the gene expression level of Bcl-2” value (from here on “decrease … of Bcl-2”) (Bcl-2 gene; MCF-7/DOX cells, 1.0 μM) was 27.5%, the “decrease … of Bcl-2” value (Bcl-2 gene; MCF-7/DOX cells, 2.0 μM) was 43.5% and the “decrease … of Bcl-2” value (Bcl-2 gene; MCF-7/DOX cells, 4.0 μM) was 71.0%. The “Bcl-2 gene level (in words)” value (Bcl-2 gene; MCF-7 and MCF-7/DOX cells) was “decreased in a dose-dependent manner”, the “decrease … of Bcl-2” value (Bcl-2 gene; MCF-7 cells, 1.0 μM) was 11.7% and the “decrease … of Bcl-2” value (Bcl-2 gene; MCF-7 cells, 2.0 μM) was 45.8%. For the same molecule, the “decrease … of Bcl-2” value (Bcl-2 gene; MCF-7 cells, 4.0 μM) was 61.2%.
